Measured values taken from ChEMBL document CHEMBL2203167, “Structural modifications of 5,6-dihydroxypyrimidines with anti-HIV activity” (Bioorg Med Chem Lett, 2012).

Legend:
[1] = tested on: Human immunodeficiency virus 1; experiment: Antiviral activity against HIV1 3B infected in human C8166 cells assessed as inhibition of syncytia after 3 days; type: functional, organism-based; details: Human immunodeficiency virus 1, 3B, C8166, 72 h
[2] = Cytotoxicity against human C8166 cells after 3 days by MTT assay; type: cell-based
[3] = Therapeutic index, ratio of CC50 for human C8166 cells to EC50 for HIV1 3B; type: cell-based; details: read-out: Ratio CC50/EC50

Row | SMILES | EC50 [1] [µM] | CC50 at 72 h [2] [µM] | selectivity ratio [3]
1 | COc1ccc(CNC(=O)c2nc(C(C)(C)NC(=O)OCc3ccccc3)nc(O)c2O)cc1 | 0.15 | 164 | 1090
2 | COc1cc(CNC(=O)c2nc(C(C)(C)NC(=O)OCc3ccccc3)nc(O)c2O)cc(OC)c1OC | 12.3 | 110 | 8.89
3 | CC(C)(NC(=O)OCc1ccccc1)c1nc(O)c(O)c(C(=O)NCCc2ccc(F)cc2)n1 | 8.61 | 35.4 | 4.11
4 | CC(C)(NC(=O)OCc1ccccc1)c1nc(O)c(O)c(C(=O)NCCc2ccccc2)n1 | 11.6 | 38.5 | 3.32
5 | CC(C)(NC(=O)OCc1ccccc1)c1nc(O)c(O)c(C(=O)NCCc2cc3ccccc3[nH]2)n1 | 7.12 | 34.1 | 4.76
6 | COCCNC(=O)c1nc(C(C)(C)NC(=O)OCc2ccccc2)nc(O)c1O | 26 | 348 | 13.4
7 | COCCCNC(=O)c1nc(C(C)(C)NC(=O)OCc2ccccc2)nc(O)c1O | 8.3 | 259 | 31.2
8 | CC(C)(NC(=O)OCc1ccccc1)c1nc(O)c(O)c(C(=O)NCC2CC2)n1 | 24.4 | 204 | 8.33
9 | CC(C)(NC(=O)OCc1ccccc1)c1nc(O)c(O)c(C(=O)NN)n1 | 164 | > 500 | > 3.37
10 | CC(C)(NC(=O)OCc1ccccc1)c1nc(O)c(O)c(C(=O)N/N=C/c2ccc(F)cc2)n1 | 27.7 | 378 | 13.7
11 | CC(C)(NC(=O)OCc1ccccc1)c1nc(O)c2oc(=O)[nH]c2n1 | 74.2 | > 500 | > 7.83
12 | CC(C)(NC(=O)OCc1ccccc1)c1nc(O)c(O)c(NC(=O)NCc2ccc(F)cc2)n1 | 9.87 | 81.1 | 8.21
13 | COc1ccc(CNC(=O)Nc2nc(C(C)(C)NC(=O)OCc3ccccc3)nc(O)c2O)cc1 | 93.2 | > 500 | 4.46
14 | COCCNC(=O)Nc1nc(C(C)(C)NC(=O)OCc2ccccc2)nc(O)c1O | 52.3 | > 500 | > 9.13
15 | CC(C)(NC(=O)OCc1ccccc1)c1nc(O)c(O)c(C(=O)NCc2ccccc2)n1 | 0.32 | 41.4 | 128
16 | CC(C)(NC(=O)OCc1ccccc1)c1nc(O)c(O)c(C(=O)NCc2ccccc2Cl)n1 | 0.14 | 53.9 | 396
17 | Cc1ccc(CNC(=O)c2nc(C(C)(C)NC(=O)OCc3ccccc3)nc(O)c2O)cc1 | 0.55 | 234 | 383
18 | CC(C)(NC(=O)OCc1ccccc1)c1nc(O)c(O)c(C(=O)NCc2ccc(C(F)(F)F)cc2)n1 | 0.24 | 58.1 | 244
19 | Cc1cn([C@H]2C[C@H](N=[N+]=[N-])[C@@H](CO)O2)c(=O)[nH]c1=O [ZIDOVUDINE] | 0.019 | – | 274000
